In this test the target is 5-HT2A receptor (Homo sapiens (Human), UniProt P28223). Description: Radioligand binding assay ([3H]5-HT competition), 5-HT2A. The conditions noted are these: [3H]5-HT radioligand, membranes of HEK293 cells expressing recombinant 5-HT2A; Ki from IC50 by Cheng-Prusoff; read-out: 5-HT2A serotonin binding Ki value. As to the method: Competition binding experiments consisted of addition of 5 μL of serially diluted test compound, 50 μL of radioligand stock diluted in Assay Buffer (20 mM HEPES, pH 7.4, 10 mM MgCl2), and 145 μL of diluted membrane expressing the receptor of interest to 96-well microtiter plates, which were then incubated for one hour at room temperature. Assay incubations were terminated by rapid filtration through Perkin Elmer GF/C filtration plates under vacuum pressure using a 96-well Packard filtration apparatus, followed by washing the filter plates several times with ice cold Assay Buffer. Plates were then dried at 45° C. for a minimum of four hours. Finally, 25 μL of BetaScint scintillation cocktail was added to each well and the plates were counted in a Packard TopCount scintillation counter. In each competition study, test compounds were assayed at 10 concentrations with three replicates at each test concentration. Dose-response curves were constructed to determine IC50 values and these were converted to corresponding Ki values using the Cheng-Prusoff equation.
5-HT2A receptor, sequence (P28223 whole entry): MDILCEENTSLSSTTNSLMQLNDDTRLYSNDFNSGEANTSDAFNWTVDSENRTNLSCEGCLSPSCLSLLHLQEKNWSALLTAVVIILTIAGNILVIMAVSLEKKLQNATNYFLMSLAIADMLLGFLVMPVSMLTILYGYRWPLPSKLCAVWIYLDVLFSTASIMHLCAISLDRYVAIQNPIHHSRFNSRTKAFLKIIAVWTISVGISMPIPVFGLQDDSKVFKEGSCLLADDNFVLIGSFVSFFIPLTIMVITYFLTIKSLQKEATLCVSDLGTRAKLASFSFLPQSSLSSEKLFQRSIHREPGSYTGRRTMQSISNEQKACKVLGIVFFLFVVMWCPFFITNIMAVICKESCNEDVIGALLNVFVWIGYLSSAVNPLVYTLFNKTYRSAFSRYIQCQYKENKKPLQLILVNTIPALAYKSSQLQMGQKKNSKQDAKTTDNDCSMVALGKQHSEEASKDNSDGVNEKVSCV
Turning to `Cc1noc(C)c1-c1cc(NC(=O)C2CC2)ccc1O[C@@H]1CCNC1` [Compound 181, (R)—N-(3-(3,5-dimethylisoxazol-4-yl)-4-(pyrrolidin-3-yloxy)phenyl)cyclopropanecarboxamide], the inhibition constant (Ki) is 10 nM.
The figure for `Cc1noc(C)c1-c1cc(NC(=O)c2cnoc2)ccc1OC[C@H]1CCCCN1` [Compound 182, N-[3-(3,5-dimethylisoxazol-4-yl)-4-[[(2R)-2-piperidyl]methoxy]phenyl]isoxazole-4-carboxamide] is 61.5 nM.
The figure for `Cc1nocc1C(=O)Nc1ccc(OC[C@H]2CCCCN2)c(-c2c(C)noc2C)c1` [Compound 183, (R)—N-(3-(3,5-dimethylisoxazol-4-yl)-4-(piperidin-2-ylmethoxy)phenyl)-3-methylisoxazole-4-carboxamide] is 5.09 nM.
Take `Cc1noc(C)c1-c1cc(NC(=O)c2cnoc2C)ccc1OC[C@H]1CCCCN1` [Compound 184, (R)—N-(3-(3,5-dimethylisoxazol-4-yl)-4-(piperidin-2-ylmethoxy)phenyl)-5-methylisoxazole-4-carboxamide]: the Ki turned out to be 10.5 nM.
As to `Cc1noc(C)c1-c1cc(NC(=O)c2ncoc2C)ccc1OC[C@H]1CCCCN1` [Compound 185, (R)—N-(3-(3,5-dimethylisoxazol-4-yl)-4-(piperidin-2-ylmethoxy)phenyl)-5-methyloxazole-4-carboxamide], the Ki was determined as 8.77 nM.
`Cc1noc(C)c1-c1cc(NC(=O)c2cnsc2)ccc1OC[C@H]1CCCCN1` [Compound 186, (R)—N-(3-(3,5-dimethylisoxazol-4-yl)-4-(piperidin-2-ylmethoxy)phenyl)isothiazole-4-carboxamide]: the Ki turned out to be 7.71 nM.
Next, `Cc1noc(C)c1-c1cc(NC(=O)c2ncsc2C)ccc1OC[C@H]1CCCCN1` [Compound 188, (R)—N-(3-(3,5-dimethylisoxazol-4-yl)-4-(piperidin-2-ylmethoxy)phenyl)-5-methylthiazole-4-carboxamide]: 4.5 nM; `Cc1noc(C)c1-c1cc(NC(=O)[C@@H]2C[C@H]2F)ccc1OC[C@H]1CCCCN1` [Compound 190, (1S,2R)—N-(3-(3,5-dimethylisoxazol-4-yl)-4-(((R)-piperidin-2-yl)methoxy)phenyl)-2-fluorocyclopropane-1-carboxamide]: 1.19 nM.
Take `Cc1ncsc1C(=O)Nc1ccc(OC[C@H]2CCCCN2)c(-c2c(C)noc2C)c1` [Compound 193, (R)—N-(3-(3,5-dimethylisoxazol-4-yl)-4-(piperidin-2-ylmethoxy)phenyl)-4-methylthiazole-5-carboxamide]: the Ki was 2.69 nM.
Consider `Cc1nc(C)c(C(=O)Nc2ccc(OC[C@H]3CCCCN3)c(-c3c(C)noc3C)c2)s1` [Compound 194, (R)—N-(3-(3,5-dimethylisoxazol-4-yl)-4-(piperidin-2-ylmethoxy)phenyl)-2,4-dimethylthiazole-5-carboxamide], for which the Ki was 32.2 nM.
In the case of `Cc1cnoc1C(=O)Nc1ccc(OC[C@H]2CCCCN2)c(-c2c(C)noc2C)c1` [Compound 195, (R)—N-(3-(3,5-dimethylisoxazol-4-yl)-4-(piperidin-2-ylmethoxy)phenyl)-4-methylisoxazole-5-carboxamide], the Ki is 15.2 nM.
Regarding `Cc1noc(C)c1-c1cc(NC(=O)C(C)(C)F)ccc1OC[C@H]1CCCCN1` [Compound 199, N-[3-(3,5-dimethylisoxazol-4-yl)-4-[[(2R)-2-piperidyl]methoxy]phenyl]-2-fluoro-2-methyl-propanamide], the Ki worked out at 35.6 nM.
In the case of `Cc1noc(C)c1-c1cc(NC(=O)C2(CF)CC2)ccc1OC[C@H]1CCCCN1` [Compound 200, (R)—N-(3-(3,5-dimethylisoxazol-4-yl)-4-(piperidin-2-ylmethoxy)phenyl)-1-(fluoromethyl)cyclopropane-1-carboxamide], the Ki turned out to be 9.08 nM.
For `Cc1noc(C)c1-c1cc(NC(=O)C[C@@H]2CCOC2)ccc1OC[C@H]1CCCCN1` [Compound 201, N-(3-(3,5-dimethylisoxazol-4-yl)-4-(((R)-piperidin-2-yl)methoxy)phenyl)-2-((S)-tetrahydrofuran-3-yl)acetamide], the Ki was 11.9 nM.

(Values after patent US20240376090A1, “ISOXAZOLE DERIVATIVES AS MODULATORS OF THE 5-HT2A SEROTONIN RECEPTOR USEFUL FOR THE TREATMENT OF DISORDERED RELATED THERETO” (Arena Pharmaceuticals, Inc., priority 2020, published 2024).)
